Test results as given in patent publication US8785425B2, “11β-hydroxyandrosta-4-ene-3-ones” (Sun Pharma Advanced Research Company Ltd., priority 2006, dated 2014).
Marks after values point to notes of the source that are not given here.

Assays:
[1] = tested on: liver glycogen deposition; type: in vivo, Male Sprague Dawley rats; conditions: 3 mg/kg intratracheally, 2 doses 24 hrs apart, adrenalectomized rats
Description: Male Sprague Dawley rats, weighing 190-220 g were bilaterally adrenalectomized and maintained on 0.9% saline solution throughout the experiment. On day 5th and 6th of adrenalectomy, animals were made into different groups, test compounds prepared in cold saline (sonicated for 30 min) were instilled intratracheally 2 doses@3 mg/kg, 24 hrs apart. At 15 hrs after the last treatment, animals were sacrificed and livers were excised and weighed. The glycogen content of the livers was determined by anthrone method. Briefly, a weighed quantity of liver tissue was homogenized with 5% trichloroacetic acid, supernatant mixed with ethanol and kept overnight for precipitation. The glycogen thus extracted was estimated as glucose generated after acid hydrolysis by addition of anthrone reagent at 620 nm. Glycogen content was expressed as mg/100 g liver.

[2] = biological target: T1, glucocorticoid receptors (Homo sapiens, UniProt P04150); assay: Glucocorticoid receptor binding assay ([3H]dexamethasone radioligand); conditions: HeLa cells transfected with glucocorticoid receptors; for inhibition at 0.1 µM: % inhibition at 100 nM
T1 construct: host or cells: Human HeLa cells
T1 sequence (P04150 1-777): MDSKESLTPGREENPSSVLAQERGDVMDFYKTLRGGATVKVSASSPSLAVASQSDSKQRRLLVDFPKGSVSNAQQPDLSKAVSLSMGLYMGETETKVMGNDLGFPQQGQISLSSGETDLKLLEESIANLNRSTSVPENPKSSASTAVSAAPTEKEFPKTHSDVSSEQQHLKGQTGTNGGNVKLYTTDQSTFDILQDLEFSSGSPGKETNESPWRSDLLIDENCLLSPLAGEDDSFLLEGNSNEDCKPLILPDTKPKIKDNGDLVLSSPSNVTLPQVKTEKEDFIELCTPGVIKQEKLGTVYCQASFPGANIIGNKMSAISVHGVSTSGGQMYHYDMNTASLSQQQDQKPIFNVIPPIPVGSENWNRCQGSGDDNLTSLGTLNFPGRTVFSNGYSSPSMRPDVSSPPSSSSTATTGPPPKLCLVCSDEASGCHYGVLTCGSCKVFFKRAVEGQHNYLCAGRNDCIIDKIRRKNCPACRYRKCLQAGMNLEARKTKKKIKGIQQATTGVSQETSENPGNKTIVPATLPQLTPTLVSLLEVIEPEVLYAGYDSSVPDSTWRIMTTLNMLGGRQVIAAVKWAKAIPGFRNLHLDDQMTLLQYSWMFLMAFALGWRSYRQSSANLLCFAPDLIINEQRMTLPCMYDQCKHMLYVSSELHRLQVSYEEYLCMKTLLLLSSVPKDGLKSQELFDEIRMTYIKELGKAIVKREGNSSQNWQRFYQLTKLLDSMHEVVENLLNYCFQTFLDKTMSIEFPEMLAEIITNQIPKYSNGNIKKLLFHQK
Description: The steroid receptor binding assay were performed by MDS Pharma Services at their Taipei (Taiwan) pharmacology laboratory.
The activity of test compounds on glucocorticoid receptor was assessed using radioligand binding assays. […] Free [^3H]dexamethasone was removed from the medium by centrifugation and concentration of receptor bound ligand was determined in the supernatant by liquid scintillation counting.
The % inhibition was evaluated using a single concentration of test compound and the corresponding radiolabeled ligand. Results are presented as the percent inhibition of specific binding. The values are average of duplicate determinations for each concentration.

[3] = tested on: cotton pellet granuloma (blank cotton pellet); assay: Assessment of systemic activity by i.v. route (blank cotton pellet granuloma); type: in vivo; conditions: dose 1600 mcg (for 3 days), male SD rats
Description: For assessing systemic side effect on i.v. administration, cotton pellet granuloma assay (blank cotton pellet) in male SD rats was undertaken. Sterilized cotton pellets weighing 20 mg were surgically implanted into the scapular region on both sides. Starting from next day of implantation, compounds dissolved in Pharmasove (Pharmasolve 66.67% in saline) or vehicle were administered intravenously at 1.6 mg/kg dose for 3 successive days. On fifth day of implantation, pellets along with granuloma were taken out. The thymus gland was also separated from each animal and weighed. The pellets with granuloma were dried for 20 hrs at 60° C. and weighed. Mean weights of dry granuloma and thymus and body weight gain/100 g body weights were compared with vehicle control groups.

[4] = tested on: croton oil induced ear edema; assay: Croton oil ear edema; type: in vivo, Mice (male, CD-1); conditions: inhibition at 1.6 μg, applied to ear, mice
Description: Mice (male, CD-1) were made into different groups. Test compounds were dissolved in pyridine-water-acetone (4:2:14) solution […] of compound or vehicle solution was applied to the left ear of the mice. The right ear of each mouse was applied simultaneously with 10 μl of pyridine:water:acetone (4:2:14) solution. After 2 hrs of compound or vehicle application, 10 μl of croton oil solution was applied to the left ear of all animals. After 6 hr of croton oil treatment the animals were sacrificed; ears were excised and weighed separately.

[5] = tested on: Sephadex induced lung edema; assay: in vivo
Description: (§1) Sephadex G-200 was prepared in sterile saline (10 mg/ml) and allowed to swell for at least 3 days at room temperature. Test compounds were prepared as suspensions by grinding and sonicating the solid in chilled saline. All the compounds were administered intratracheally at 24 hrs and 2 hrs prior to intratracheal administration of Sephadex (5 mg/kg) under light ether anesthesia. Vehicle control animals were administered vehicle instead of Sephadex. At 24 hr after Sephadex instillation, lung and thymus were excised from individual animals and weighed. Wet weight of lung and thymus was corrected for 100 g of initial body weight. The percentage increase in lung weight caused by Sephadex and its inhibitions by the compounds, were calculated. The percentage inhibitions of thymus compared to vehicle control group were also calculated.

[6] = tested on: cotton pellet induced granuloma; assay: Cotton pellet granuloma (compound impregnated in pellet); type: in vivo; conditions: dose 1000 mcg per pellet, SD rats
Description: SD rats were used for assessing anti-inflammatory activity of test compound using cotton pellet granuloma method. Sterilized cotton pellets weighing 20 mg were prepared. Test compounds were dissolved in acetone so as to get the required quantity for each cotton pellet in 500 μl. Different pellets were impregnated with 500 μl of acetone to contain required quantity of test compounds and allowed to dry. Vehicle control pellets were impregnated with 500 μl acetone. Rats were made into different groups. Two cotton pellets were surgically implanted into the scapular region of each rat. On sixth day of such implantation, pellets along with granuloma were taken out. Thymus gland was also separated from each animal and weighed. The pellets with granuloma were dried for 20 hrs at 60° C. and weighed. Mean weights of dry granuloma and thymus, body weight gain/100 g body weights were calculated.

[7] = in vivo; conditions: SD, rat, thymus, other: intratracheal
Description: as §1

[8] = dose 3000 mcg/kg intratracheally, SD rat

Row | SMILES | Glycogen content [1] | inhibition at 0.1 µM [2] | Mean Inhibition of Granuloma (%) [3] | % Inhibition of thymus [1] | Mean % Inhibition (croton oil ear edema) [4] | Mean % Inhibition of Granuloma [6] | Thymus wt. (% Decrease) [6] | other results
1 | CCC(=O)O[C@]1(C(=O)SOCF)[C@H](C)CC2C3C[C@H](F)C4=CC(=O)C=C[C@]4(C)[C@@]3(F)[C@@H](O)C[C@@]21C (stereo partly drawn) [IC.3, 6α,9α-Difluoro-11β-hydroxy-16α-methyl-3-oxo-17α-propionyloxyandrosta-1,4-diene-17β-carbonylsulfenic acid fluoromethyl ester] | −11.34 mg/100 g liver | 72% | 12.09% |  |  |  |  | 
2 | CCC(=O)O[C@]1(C(=O)SCF)[C@H](C)C[C@H]2[C@@H]3C[C@H](F)C4=CC(=O)C=C[C@]4(C)[C@@]3(F)[C@@H](O)C[C@@]21C [Fluticasone propionate, (S)-fluoromethyl 6α,9α-difluoro-11β-hydroxy-16α-methyl-17α-propionyloxy-3-oxoandrosta-1,4-diene-17β-carbothioate, reference compound] | 1514.65 mg/100 g liver |  | 55.62% | 70.17% | 81.09^a % | 75.03% | 82.36% | Mean Thymus wt. Decrease (%) [3]: 75.71%; ED50 Lung edema ([5]; i.t., Sephadex lung edema model in SD rat): 0.086 mg/kg; ED50 Thymus ([5]; i.t., thymus involution, Sephadex lung edema model in SD rat): 0.36 mg/kg
3 | C[C@@H]1CC2C3C[C@H](F)C4=CC(=O)C=C[C@]4(C)[C@@]3(F)[C@@H](O)C[C@]2(C)[C@@]1(OC(=O)c1ccco1)C(=O)SOCc1ccc(F)cc1 (stereo partly drawn) [IC.5, 6α,9α-Difluoro-17α-[(2-furanylcarbonyl)oxy]-11β-hydroxy-16α-methyl-3-oxoandrosta-1,4-diene-17β-carbonylsulfenic acid (4-fluorophenyl)methyl ester] |  | 75% | −22.20% |  |  |  |  | 
4 | C[C@@H]1C[C@H]2[C@@H]3CCC4=CC(=O)C=C[C@]4(C)[C@@]3(F)[C@@H](O)C[C@]2(C)[C@@]1(O)C(=O)CO [Dexamethasone, 16α-methyl-9α-fluoro-1,4-pregnadiene-11β,17α,21-triol-3,20-dione, reference compound] |  |  |  |  | 50.05^a % | 44.73% | 68.66% | 
5 | CCCC1O[C@@H]2C[C@H]3[C@@H]4CCC5=CC(=O)C=C[C@]5(C)[C@H]4[C@@H](O)C[C@]3(C)[C@]2(C(=O)CO)O1 (stereo partly drawn) [Budesonide, (11β,16α)-16,17-[Butylidenebis(oxy)]-11,21-dihydroxypregna-1,4-diene-3,20-dione] | 552.77 mg/100 g liver |  |  | 65.02% |  |  |  | inhibition at 0.01 µM ([2]; % inhibition at 10 nM): 85%; ED50 at 24 h [7]: 0.68 mg/kg; ED50 ([5]; Rattus norvegicus, inhaled or nasal, read-out: ED50 Lung edema): 0.101 mg/kg; Mean % inhibition Lung edema [5, 8]: 119.38%; Mean % inhibition Thymus [5, 8]: 67.08%
